Measurements: US11629171B2, “Beta-hairpin peptidomimetics” (POLYPHOR AG, priority 2017, dated 2023)
Values after ≈ are worked out from the molar mass of the structure shown. Where a SMILES comes first, the peptide text is derived from it. Bridges are numbered along the chain shown (N, C = ends). Roman numbers before positions name the chains, in order. [ ]: non-standard residue; d: D form. Hiv = CC(C)[C@H](O)C(=O)O; dDab = NCC[C@@H](N)C(=O)O; Dab = NCC[C@H](N)C(=O)O; Dap = NC[C@H](N)C(=O)O

What was measured:
Type in all cases: cell-based
[1] = tested on: Klebsiella pneumoniae SSI #3010; details: SSI #3010
In short: (§1)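 MIC in μg/mL, read as no visible growth after 18-20 hours at 35° C. Peptides were serially diluted two-fold in MH-II broth plus P-80 (0.002% final, v/v) and inoculated at about 10^6 CFU/mL following the CLSI broth microdilution standard.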

[2] = tested on: Klebsiella pneumoniae 968733; details: 968733
In short: as §1

[3] = tested on: Escherichia coli ATCC 25922; details: ATCC 25922
In short: as §1

[4] = tested on: Acinetobacter baumannii 872842; details: 872842
In short: as §1

Escherichia coli 926415 = details: 926415
In short: as §1

[5] = tested on: Acinetobacter baumannii DSM 30008; details: DSM 30008
In short: as §1

[6] = tested on: Enterobacter cloacae 848840; details: 848840
In short: as §1

[7] = tested on: Pseudomonas aeruginosa ATCC 27853; details: ATCC 27853
In short: as §1

[8] = tested on: human red blood cells (hRBC); assay: Hemolysis; details: red cells of human, 1 h, 200
In short: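 hRBC washed 4× in PBS; 200 μg/mL peptide + 20% (v/v) hRBC, 1 h, 37° C, 300 rpm. Spin, supernatant ~7.5-fold diluted, OD540 blank corrected. % hemolysis = OD540 peptide / OD540 Triton X-100 × 100.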

| Structure (SMILES) | Klebsiella pneumoniae SSI #3010 MIC [1] [µg/mL] | MIC [2] [µg/mL] | Escherichia coli ATCC 25922 MIC [3] [µg/mL] | MIC [4] [µg/mL] | MIC (Escherichia coli 926415) [µg/mL] | Acinetobacter baumannii DSM 30008 MIC [5] [µg/mL] | MIC [6] [µg/mL] | Pseudomonas aeruginosa ATCC 27853 MIC [7] [µg/mL] | Hemolysis at 200 μg/mL [8] [%] |
| --- | --- | --- | --- | --- | --- | --- | --- | --- | --- |
| CC(=O)N[C@H](C(=O)N[C@H]1CCNC(=O)CC[C@@H](C(=O)N[C@@H](CO)C(N)=O)NC(=O)[C@H](CC(C)C)NC(=O)[C@H](CO)NC(=O)[C@H](Cc2c[nH]c3ccccc23)NC(=O)[C@H](CO)NC(=O)[C@@H](CCN)NC(=O)[C@H](CCC(=O)N[C@@H](CCN)C(=O)N[C@H](C(=O)N[C@@H](CN)C(=O)N[C@H]2CCNC(=O)[C@H]([C@@H](C)O)NC(=O)[C@H](CCN)NC(=O)[C@H](CCN)NC(=O)[C@H](CC(C)C)NC(=O)[C@@H](CC(C)C)NC(=O)[C@H](CCN)NC2=O)[C@@H](C)O)NC(=O)[C@H](CCN)NC(=O)[C@H](Cc2ccc(O)cc2)NC1=O)C(C)C [Ex. 327] (I: Ac-V[Dab]Y[Dab]E[dDab]SWSLES-NH2 / II: [Dab]T[Dap][Dab][Dab][dL]L[Dab][Dab]T; lactam I:2-I:11, II:4-II:C; amide I:5-II:N) | 0.0625 | 0.5 (≈ 0.207 µM) | 0.0625 | 0.125 (≈ 0.0517 µM) | 0.25 (≈ 0.103 µM) | 0.0625 | 0.125 (≈ 0.0517 µM) | 0.125 | <1 |
| CC(=O)N[C@H](C(=O)N[C@H]1CSSC[C@@H](C(=O)N[C@@H](CO)C(N)=O)NC(=O)[C@H](C(C)C)NC(=O)[C@H](CO)NC(=O)[C@H](Cc2c[nH]c3ccccc23)NC(=O)[C@H](CO)NC(=O)[C@@H](CCN)NC(=O)[C@H](CCC(=O)N[C@@H](CCN)C(=O)N[C@H](C(=O)N[C@@H](CN)C(=O)N[C@H]2CCNC(=O)[C@H]([C@@H](C)O)NC(=O)[C@H](CCN)NC(=O)[C@H](CCN)NC(=O)[C@H](CC(C)C)NC(=O)[C@@H](CC(C)C)NC(=O)[C@H](CCN)NC2=O)[C@@H](C)O)NC(=O)[C@H](Cc2c[nH]cn2)NC(=O)[C@H](Cc2ccc(O)cc2)NC1=O)C(C)C [Ex. 328] (I: Ac-VCYHE[dDab]SWSVCS-NH2 / II: [Dab]T[Dap][Dab][Dab][dL]L[Dab][Dab]T; disulfide I:2-I:11; amide I:5-II:N; lactam II:4-II:C) | 0.125 | 0.25 (≈ 0.103 µM) | 0.01562 | 0.0625 (≈ 0.0257 µM) | 0.125 (≈ 0.0513 µM) | 0.01562 | 0.0625 (≈ 0.0257 µM) | 0.0625 | 1 |
| CC(=O)N[C@H](C(=O)N[C@H]1CSSC[C@@H](C(=O)N[C@@H](CO)C(N)=O)NC(=O)[C@H](C(C)C)NC(=O)[C@H](Cc2c[nH]cn2)NC(=O)[C@H](Cc2c[nH]c3ccccc23)NC(=O)[C@H](CO)NC(=O)[C@@H](CCN)NC(=O)[C@H](CCC(=O)N[C@@H](CCN)C(=O)N[C@H](C(=O)N[C@@H](CN)C(=O)N[C@H]2CCNC(=O)[C@H]([C@@H](C)O)NC(=O)[C@H](CCN)NC(=O)[C@H](CCN)NC(=O)[C@H](CC(C)C)NC(=O)[C@@H](CC(C)C)NC(=O)[C@H](CCN)NC2=O)[C@@H](C)O)NC(=O)[C@H](CCN)NC(=O)[C@H](Cc2ccc(O)cc2)NC1=O)C(C)C [Ex. 329] (I: Ac-VCY[Dab]E[dDab]SWHVCS-NH2 / II: [Dab]T[Dap][Dab][Dab][dL]L[Dab][Dab]T; disulfide I:2-I:11; amide I:5-II:N; lactam II:4-II:C) | 0.125 | 0.25 (≈ 0.102 µM) | 0.0625 | 0.125 (≈ 0.051 µM) | 0.125 (≈ 0.051 µM) | 0.0625 | 0.125 (≈ 0.051 µM) | 0.125 | <1 |
| CC(=O)N[C@@H](CC(C)C)C(=O)N[C@H]1CSSC[C@@H](C(=O)N[C@@H](CO)C(N)=O)NC(=O)[C@H](C(C)C)NC(=O)[C@H](CCN)NC(=O)[C@H](Cc2c[nH]c3ccccc23)NC(=O)[C@H](CO)NC(=O)[C@@H](CCN)NC(=O)[C@H](CCC(=O)N[C@@H](CCN)C(=O)N[C@H](C(=O)N[C@@H](CN)C(=O)N[C@H]2CCNC(=O)[C@H]([C@@H](C)O)NC(=O)[C@H](CCN)NC(=O)[C@H](CCN)NC(=O)[C@H](CC(C)C)NC(=O)[C@@H](CC(C)C)NC(=O)[C@H](CCN)NC2=O)[C@@H](C)O)NC(=O)[C@H](CCN)NC(=O)[C@H](Cc2ccc(O)cc2)NC1=O [Ex. 330] (I: Ac-LCY[Dab]E[dDab]SW[Dab]VCS-NH2 / II: [Dab]T[Dap][Dab][Dab][dL]L[Dab][Dab]T; disulfide I:2-I:11; amide I:5-II:N; lactam II:4-II:C) | 0.0625 | 2 (≈ 0.824 µM) | 0.0625 | 1 (≈ 0.412 µM) | 0.25 (≈ 0.103 µM) | 0.25 | 0.125 (≈ 0.0515 µM) | 0.25 | 1 |

Now from value to molecule, other results behind:

| Klebsiella pneumoniae SSI #3010 MIC [1] [µg/mL] | MIC [2] [µg/mL] | Escherichia coli ATCC 25922 MIC [3] [µg/mL] | MIC [4] [µg/mL] | MIC (Escherichia coli 926415) [µg/mL] | Acinetobacter baumannii DSM 30008 MIC [5] [µg/mL] | MIC [6] [µg/mL] | Pseudomonas aeruginosa ATCC 27853 MIC [7] [µg/mL] | Structure (SMILES) | Hemolysis at 200 μg/mL [8] [%] |
| --- | --- | --- | --- | --- | --- | --- | --- | --- | --- |
| 0.0625 | 0.5 (≈ 0.213 µM) | 0.0625 | 0.125 (≈ 0.0532 µM) | 0.25 (≈ 0.106 µM) | 0.0625 | 0.125 (≈ 0.0532 µM) | 0.125 | CC(=O)N[C@H](C(=O)N[C@H]1CCNC(=O)C[C@@H](C(=O)N[C@@H](CO)C(N)=O)NC(=O)[C@H](C(C)C)NC(=O)[C@H](CO)NC(=O)[C@H](Cc2c[nH]c3ccccc23)NC(=O)CNC(=O)[C@@H](CCN)NC(=O)[C@H](CCC(=O)N[C@@H](CCN)C(=O)N[C@H](C(=O)N[C@@H](CN)C(=O)N[C@H]2CCNC(=O)[C@H]([C@@H](C)O)NC(=O)[C@H](CCN)NC(=O)[C@H](CCN)NC(=O)[C@H](CC(C)C)NC(=O)[C@@H](CC(C)C)NC(=O)[C@H](CCN)NC2=O)[C@@H](C)O)NC(=O)[C@H](CN)NC(=O)[C@H](Cc2ccc(O)cc2)NC1=O)C(C)C [Ex. 346] (I: Ac-V[Dab]Y[Dap]E[dDab]GWSVDS-NH2 / II: [Dab]T[Dap][Dab][Dab][dL]L[Dab][Dab]T; lactam I:2-I:11, II:4-II:C; amide I:5-II:N) | <1 |
| 0.0625 | 1 (≈ 0.431 µM) | 0.0625 | 0.25 (≈ 0.108 µM) | 0.25 (≈ 0.108 µM) | 0.125 | 0.5 (≈ 0.215 µM) | 0.125 | CC(C)C[C@@H]1NC(=O)[C@@H](CC(C)C)NC(=O)[C@H](CCN)NC(=O)[C@@H](NC(=O)[C@H](CN)NC(=O)[C@@H](NC(=O)[C@H](CCN)NC(=O)CC[C@@H]2NC(=O)[C@H](CCN)NC(=O)[C@H](Cc3ccc(O)cc3)NC(=O)[C@@H](NC(=O)[C@@H](O)C(C)C)CCNC(=O)C[C@@H](C(=O)N[C@@H](CO)C(N)=O)NC(=O)[C@H](C(C)C)NC(=O)[C@H](CO)NC(=O)[C@H](Cc3c[nH]c4ccccc34)NC(=O)CNC(=O)[C@@H](CCN)NC2=O)[C@@H](C)O)CCNC(=O)[C@H]([C@@H](C)O)NC(=O)[C@H](CCN)NC(=O)[C@H](CCN)NC1=O [Ex. 347] (I: H-[Hiv][Dab]Y[Dab]E[dDab]GWSVDS-NH2 / II: [Dab]T[Dap][Dab][Dab][dL]L[Dab][Dab]T; lactam I:2-I:11, II:4-II:C; amide I:5-II:N) | <1 |
